Measured values from publication PMC9416004, “A Versatile Class of 1,4,4-Trisubstituted Piperidines Block Coronavirus Replication In Vitro” (Pharmaceuticals, 2022).
Where two headings read alike, the source gives them in different places.

How the values were obtained:
HCoV-229E [1] = assay: One-cycle time-of-compound addition (TOA) assay with HCoV-229E in HEL cells; type: cell-based, human coronavirus 229E
[2] = test system: human embryonic lung (HEL) fibroblast cells; conditions: mock-infected HEL cells; microscopically visible alterations in cell morphology
[3] = target: SARS-CoV-2 nsp5 main protease (M^pro) (Severe acute respiratory syndrome coronavirus 2, UniProt P0DTD1); assay: FRET-based M^pro enzymatic assay; type: biochemical; conditions: for IC50 on SARS-CoV-2 M^pro enzyme activity: 80 nM nsp5, 5 μM Dabcyl-KTSAVLQSGFRKM-Edans-NH2 substrate, mean ± SEM (N = 3)
Experimental: Serial dilutions of the compounds were incubated with purified nsp5 protein in the presence of substrate (Dabcyl-KTSAVLQ↓SGFRKM-Edans-NH2), and peptide cleavage was followed by an increase in fluorescence. The compounds’ IC50 values were determined by Hill curve fitting. Values are the mean ± SEM (N = 3).
After transforming the pGEX-6P-1 plasmid in E. coli BL21 DE3 gold, nsp5 production was stimulated by overnight induction with 250 μM IPTG at a temperature of 17 °C. After centrifugation, the bacteria were resuspended in buffer consisting of: 50 mM Tris pH 8; 300 mM NaCl; 5 mM MgSO4; 1 mM PMSF; 10 μg/mL DNAse I; 0.25 mg/mL Lysozyme; 0.1%Triton X-100; and 10% glycerol. The cells were lysed by three cycles of sonication and centrifugation. The nsp5 protein was bound to Co-NTA agarose beads and eluted in lysis buffer containing 250 mM of imidazole. Next, the protein product was concentrated on a Vivaspin 20 centrifugal concentrator (10 kDa cut-off; GE Healthcare) and imidazole was removed by dialysis. Finally, the purified nsp5 was stored at −80 °C with 50% glycerol.
M^pro enzymatic assay. The fluorescence resonance energy transfer (FRET)-based protease assay was performed in black 384-well plates. Briefly, serial dilutions of the compounds were incubated with 80 nM nsp5 protein and 5 μM peptide substrate (Dabcyl-KTSAVLQ↓SGFRKM-Edans-NH2; Genscript) in buffer consisting of: 20 mM HEPES pH 6.5; 120 mM NaCl; 0.4 mM EDTA; 4 mM dithiothreitol; and 10% glycerol. The final DMSO content was 0.5%. Cleavage of the substrate was monitored for 40 min by measuring the increasing fluorescence in a Tecan Safire 2 plate reader (wavelength settings: excitation at 335 nm and emission at 493 nm). For each condition, enzyme activity was derived from the slope for the linear part of the curve and expressed relative to the activity in the condition receiving no compound. To determine the IC50 values, GraphPad Prism software was used to plot the % of enzyme activity against compound concentration and then fit the curves according to the equation Y = 100/(1 + (X/IC50)^HillSlope).

in vitro [4] = conditions: human
SARS-CoV-2 = assay: RT-qPCR-based SARS-CoV-2 viral load reduction assay in A549-AT cells; type: cell-based; conditions: for Antiviral activity EC99: 100-fold reduction in viral RNA copies in supernatant at day 3 p.i.; for EC90: Severe acute respiratory syndrome coronavirus 2, 72 h, 10-fold reduction in viral RNA copies in supernatant at day 3 p.i., read-out: Antiviral activity EC90
HCoV-229E [5] = assay: Cytopathic effect (CPE) reduction assay with HCoV-229E in HEL cells; type: cell-based, human coronavirus 229E; conditions: for EC50: Human coronavirus 229E, 120 h; for Selectivity Index MTS: ratio of CC50 to EC50-MTS; for Selectivity Index MTS / Selectivity Index Microscopy: only values of 10 or higher shown; for Selectivity Index Microscopy: ratio of MCC to EC50-microscopy
in vitro [6] = conditions: human; remark: listed apart in the source
[7] = target: SARS-CoV-2 nsp10/nsp16 2'O-MTase (Severe acute respiratory syndrome coronavirus 2, UniProt P0DTD1); assay: Radioactive filter-binding MTase assay, nsp10/nsp16; type: biochemical; conditions: compound concentration of 200 µM
[8] = target: SARS-CoV-2 nsp14 N7-MTase (Severe acute respiratory syndrome coronavirus 2, UniProt P0DTD1); assay: Radioactive filter-binding MTase assay, nsp14; type: biochemical; conditions: compound concentration of 200 µM
[9] = compound added at 8 h p.i., HEL cells lysed at 16 h p.i., 33 15 µM, GC376 25 µM, GS-441524 20 µM, K22 15 µM
[10] = HCoV-229E-infected HEL cells, protection against virus-induced CPE by MTS cell viability assay, five days at 35 °C, read-out: Antiviral EC50 MTS
[11] = HCoV-229E-infected HEL cells, protection against virus-induced CPE by microscopic scoring, five days at 35 °C, read-out: Antiviral EC50 Microscopy

Compound	Cytotoxicity MCC (minimal cytotoxic concentration) [2]	IC50 [3]	CC50 (in vitro [4])	Antiviral activity EC99 (SARS-CoV-2)	EC90 (SARS-CoV-2)	EC50 (HCoV-229E [5]; [10])	EC50 (HCoV-229E [5]; [11])	Selectivity Index MTS (HCoV-229E [5])	Selectivity Index Microscopy (HCoV-229E [5])	other results
CCOC(=O)[C@H]1O[C@@H]1C(=O)N[C@@H](CC(C)C)C(=O)NCCC(C)C [Compound E64d]										inhibition of viral RNA synthesis (HCoV-229E [1]; compound addition delayed until 4 h p.i., HEL cells lysed at 16 h p.i., E64d 15 µM, bafilomycin 0.00625 µM): 46%
COC(=O)C[C@H](NC(=O)OCc1ccccc1)C(=O)N(Cc1ccccc1)C1(C(=O)NCc2ccccc2)CCN(Cc2ccccc2)CC1 [Compound 33]	>100 µM	64 ± 8 µM	> 100 µM	14 µM	9.3 µM	3.3 ± 0.4 µM	3 ± 0.1 µM	>30	>33	inhibition of viral RNA synthesis (HCoV-229E [1]; [9]): losing some activity; CC50 (in vitro [6]): 90 µM
N#C[C@@]1(c2ccc3c(N)ncnn23)O[C@H](CO)[C@@H](O)[C@H]1O [GS-441524, reference compound]	>100 µM			4.6 µM	3.2 µM	2.3 ± 0.2 µM	3.5 µM	>43	>29	inhibition of viral RNA synthesis (HCoV-229E [1]; [9]): ~ 90%
CC(C)(C)OC(=O)N[C@@H](Cc1ccccc1)C(=O)N(Cc1ccccc1)C1(C(=O)NCc2ccccc2)CCN(Cc2ccccc2)CC1 [Compound 46]	≥100 µM	22 ± 2 µM	75 µM			4.5 ± 0.2 µM	7.4 ± 1.3 µM	17	≥14	
CC(C)(C)OC(=O)NC(Cc1ccccc1)C(=O)N(Cc1ccccc1)C1(C(=O)NCc2ccccc2)CCN(Cc2ccc([N+](=O)[O-])cc2)CC1 (stereo not drawn) [Compound 63, Tert-butyl(1-(benzyl(4-benzylcarbamoyl-1-(4-nitrobenzyl)piperidin-4-yl)amino)-1-oxo-3-phenylpropan-2-yl)carbamate]	≥100 µM	196 ± 39 µM	> 100 µM			77 ± 9 µM	82 ± 15 µM			IC50 on SARS-CoV-2 M^pro enzyme activity [3]: only marginal activity
CC(C)(C)OC(=O)NC(Cc1ccccc1)C(=O)N(Cc1ccccc1)C1(C(=O)NCc2ccccc2)CCN(Cc2ccc(F)cc2)CC1 (stereo not drawn) [Compound 60, Tert-butyl(1-(benzyl(4-benzylcarbamoyl-1-(4-fluorobenzyl)piperidin-4-yl)amino)-1-oxo-3-phenylpropan-2-yl)carbamate]	≥100 µM	68 ± 21 µM		5.2 µM	2.2 µM	4 ± 0.1 µM	4.5 ± 0.2 µM	>25		inhibition at 200 µM [7]: 80%
O=C(N/C(=C\c1ccccc1)C(=O)N1CCC(O)(c2ccc(Br)cc2)CC1)c1ccccc1 [Compound K22, (Z)-N-[3-[4-(4-bromophenyl)-4-hydroxypiperidin-1-yl]-3-oxo-1-phenylprop-1-en-2-yl]benzamide, reference compound]	50 µM		28 ± 3 µM			3.6 ± 0.6 µM	2.6 ± 0.5 µM		19	inhibition of viral RNA synthesis (HCoV-229E [1]; [9]): 100%
Cc1ccc(CC(NC(=O)OC(C)(C)C)C(=O)N(Cc2ccccc2)C2(C(=O)NCc3ccccc3)CCN(Cc3ccccc3)CC2)cc1 (stereo not drawn) [Compound 52, Tert-butyl(1-(benzyl(1-benzyl-4-benzylcarbamoylpiperidin-4-yl)amino)-1-oxo-3-(p-tolyl)propan-2-yl)carbamate]	≥100 µM	14 ± 4 µM		3.9 µM	1.7 µM	4.7 ± 0.6 µM	6.6 ± 1.8 µM	>21	≥15	
COC(=O)C[C@H](NC(=O)OCc1ccccc1)C(=O)N(Cc1ccc(F)cc1)C1(C(=O)NCc2ccccc2)CCN(Cc2ccccc2)CC1 [Compound 34]	81 µM	38 ± 5 µM		13 µM	8 µM	3.4 ± 0.4 µM	3.1 ± 0.1 µM	22	26	inhibition at 200 µM [8]: 80%
CO/C1=C\C(C)=C\[C@@H](C)[C@@H](O)[C@@H](C)C/C(C)=C/C=C/[C@H](OC)[C@@H]([C@@H](C)[C@@H](O)[C@H](C)[C@@]2(O)C[C@@H](O)[C@H](C)[C@@H](C(C)C)O2)OC1=O [bafilomycin]										inhibition of viral RNA synthesis (HCoV-229E [1]): 9%
CC(C)(C)OC(=O)N[C@@H](Cc1ccccc1)C(=O)N(Cc1ccc(F)cc1)C1(C(=O)NCc2ccccc2)CCN(Cc2ccccc2)CC1 [Compound 45]	50 µM	15 ± 2 µM	4.4 ± 0.8 µM			1.1 ± 0.2 µM	0.85 ± 0.07 µM			
CC(C)C[C@H](NC(=O)OCc1ccccc1)C(=O)N[C@@H](C[C@@H]1CCNC1=O)C(O)S(=O)(=O)[O-].[Na+] (stereo partly drawn) [GC376]										inhibition of viral RNA synthesis (HCoV-229E [1]; […], 33 15 µM, GC376 25 µM, GS-441524 20 µM, K22 15 µM): ~ 90%
COC(=O)C[C@H](NC(=O)OC(C)(C)C)C(=O)N(Cc1ccccc1)C1(C(=O)NCc2ccccc2)CCN(Cc2ccccc2)CC1 [Compound 1]	>100 µM	161 ± 35 µM	> 100 µM			> 100 µM	> 100 µM			IC50 on SARS-CoV-2 M^pro enzyme activity [3]: only marginal activity; Antiviral EC50 MTS (HCoV-229E [5]; HCoV-229E-infected HEL cells, protection against virus-induced CPE by MTS cell viability assay, five days at 35 °C): no activity
